Assay results published in patent US10130617B2, “Chemical compounds” (AstraZeneca AB, priority 2013, dated 2018).

Tested on: HCC1428 LTED cells
Experiment: HCC1428 Long Term Estrogen Deprived (HCC1428 LTED) Xenograft Efficacy Study
Type: in vivo, NSG mice
Settings: 25 mg/kg once daily p.o., after 28 days of dosing
Protocol: HCC1428 Long Term Estrogen Deprived (HCC1428 LTED) Xenograft Efficacy Study
After a suitable period of cell culture, HCC1428 LTED cells (1×10^6) were implanted subcutaneously in the hind flank of female immuno-compromised NSG mice (Jackson Labs, USA) that had undergone overectomy. Tumours were measured twice weekly and changes in tumour volume and growth inhibition were determined by bilateral Vernier calliper measurement (length×width) where length was taken to be the longest diameter across the tumour and width the corresponding perpendicular. Tumour volume was calculated using the formula (length×width)×√(length×width)×(π/6). Tumours were measured once weekly after cell implantation until the average size reached 150 mm^3 at which point the mice were placed into randomised test groups, each group containing 10 mice. Treatment with compounds began the day after (day 62 in this study) and once weekly tumour measurement continued. […] Another group of animals was dosed with vehicle p.o. to act as a control.

`C[C@@H]1Cc2c([nH]c3ccccc23)[C@@H](c2c(F)cc(/C=C/C(=O)O)cc2F)N1CC(C)(C)F` [Example 1, (E)-3-(3,5-Difluoro-4-((1R,3R)-2-(2-fluoro-2-methylpropyl)-3-methyl-2,3,4,9-tetrahydro-1H-pyrido[3,4-b]indol-1-yl)phenyl)acrylic acid] was tested, and the “decrease in tumour size” value (geometric mean values, control grew by 220 mm^3) was 46 mm^3 and the “inhibition of tumour growth” value (P<0.001 by unpaired t-test) was 121%.
